The text below walks through data of patent US20260216294A1, “BETA 2-ADRENERGIC RECEPTOR AGONISTS FOR TREATMENT OR PREVENTION OF MUSCLE WASTING” (ATROGI AB, priority 2023, published 2026).

Test [1] relates to L6-myotubes. Briefly: Glucose uptake in differentiated L6-myotubes (Biological Example 2). It counts as cell-based. The conditions noted are these: glucose uptake, compound at 10 μM relative to isoproterenol at 10 μM; for Emax at 10 µM: read-out: Biological example 2 (GU). The procedure, abridged:
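Uptake was quantified as radioactivity in 0.2 M NaOH lysates after a 10 min pulse of 50 nM ^3H-2-deoxyglucose. The pulse followed two agonist exposures at 1×10^−5 M final (isoprenaline or test compound): 1 h 40 min, then 20 min in glucose-free medium after washing. L6 myotubes had been starved overnight in medium with 0.5% fatty-acid-free BSA.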

The subject of test [2] is L6-myotubes. Put plainly: Measurement of intracellular cAMP levels in differentiated L6-myotubes (Biological Example 3). Type of test: cell-based. The conditions noted are these: intracellular cAMP, compound at 10 μM relative to isoproterenol at 10 μM; for Emax at 10 µM: 0.25 h. The essentials: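 Intracellular cAMP quantified by AlphaScreen after ethanol extraction and lysis of L6 myotubes. Cells were serum-starved overnight, then exposed for 15 min to compound (final 1×10^−5 M) or isoprenaline in IBMX-containing (1 mM) HBSS buffer, pH 7.4.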
For orientation: Cyclic AMP is a second messenger, typically raised through Gs and lowered through Gi signalling.

As to `CCC[C@@H]1CCC[C@@H]([C@H](O)c2cccc(O)c2)N1` [Compound 136], the Emax at 10 µM with L6-myotubes [1] is more than 75%; in the test on L6-myotubes [2], less than 25%.

`CCC[C@@H]1CCC[C@H]([C@@H](O)c2cccc(O)c2)N1` [Compound 137, (S)-[(2R,6R)-6-propyl-2-piperidyl](m-hydroxyphenyl)methanol]: the figures for the Emax at 10 µM with L6-myotubes [1] and in the test on L6-myotubes [2] were 25 to 50% and less than 25%, respectively.

With `CC(C)(C)NC[C@H](O)c1cncc(Cl)c1` [Compound 138, (R)-2-(tert-butylamino)-1-(5-chloro-3-pyridyl)-1-ethanol], the Emax at 10 µM with L6-myotubes [1] and in the test with L6-myotubes [2] was more than 75% each time.

For the molecule `CCC[C@H]1CCC[C@H]([C@@H](O)c2cncc(F)c2)N1` [Compound 139], the Emax at 10 µM with L6-myotubes [1] and in the test with L6-myotubes [2] was less than 25% throughout.

For `CCC[C@H]1CCC[C@H]([C@H](O)c2cncc(F)c2)N1` [Compound 140], the Emax at 10 µM in the test with L6-myotubes [1] and in the test with L6-myotubes [2] was less than 25% in each case.

`CCC[C@@H]1CC[C@H]([C@H](O)c2cccc(Cl)c2)N1` [Compound 141, (R)-[(2R,5R)-5-propyl-2-pyrrolidinyl](m-chlorophenyl)methanol]: the Emax at 10 µM with L6-myotubes [1] was 50 to 75%; in the test with L6-myotubes [2], less than 25%.

As to `CC1(C)CC[C@@H]([C@H](O)c2cccc(O)c2)N1` [Compound 142, m-{(R)-[(S)-5,5-dimethyl-2-pyrrolidinyl] hydroxymethyl}phenol], the Emax at 10 µM in the test with L6-myotubes [1] was 25 to 50%; with L6-myotubes [2], less than 25%.

Take `CC1(C)CC[C@@H]([C@@H](O)c2cccc(O)c2)N1` [Compound 143]: the Emax at 10 µM with L6-myotubes [1] and in the test on L6-myotubes [2] was less than 25% in each case.

With `CC1(C)CC[C@@H]([C@H](O)c2cccc(F)c2)N1` [Compound 144], the Emax at 10 µM in the test with L6-myotubes [1] and with L6-myotubes [2] was less than 25% in each case.

For the molecule `CC1(C)CC[C@@H]([C@@H](O)c2cccc(F)c2)N1` [Compound 145, (S)-[(S)-5,5-dimethyl-2-pyrrolidinyl](m-fluorophenyl)methanol], the Emax at 10 µM with L6-myotubes [1] was 25 to 50%; in the test with L6-myotubes [2] it was less than 25%.

Regarding `CC(C)(C)NC[C@H](O)c1ncccc1Cl` [Compound 146, (S)-2-(tert-butylamino)-1-(3-chloro-2-pyridyl)-1-ethanol], the Emax at 10 µM with L6-myotubes [1] is 25 to 50%; with L6-myotubes [2], less than 25%.

For the molecule `CC(C)(C)NC[C@H](O)c1ccc(Cl)cn1` [Compound 147, (S)-2-(tert-butylamino)-1-(5-chloro-2-pyridyl)-1-ethanol], the results for the Emax at 10 µM in the test with L6-myotubes [1] and with L6-myotubes [2] were 25 to 50% and less than 25%, respectively.

Consider `CCC[C@@H]1CC[C@H]([C@H](O)c2ccccc2Cl)N1` [Compound 148, (R)-[(2R,5R)-5-propyl-2-pyrrolidinyl](o-chlorophenyl)methanol], for which the Emax at 10 µM was more than 75% in the test on L6-myotubes [1] and less than 25% with L6-myotubes [2].

As for `CC(C)(C)NC[C@H](O)c1ccc(F)c(N)c1F` [Compound 149, (R)-1-(3-amino-2,4-difluorophenyl)-2-(tert-butylamino)-1-ethanol], the values for the Emax at 10 µM in the test with L6-myotubes [1] and with L6-myotubes [2] were more than 75% and 25 to 50%, respectively.

In the case of `Cc1c(F)cccc1[C@@H](O)CNC(C)(C)C` [Compound 150, (R)-2-(tert-butylamino)-1-(3-fluoro-2-tolyl)-1-ethanol], the Emax at 10 µM in the test with L6-myotubes [1] was more than 75%; in the test on L6-myotubes [2] it was 25 to 50%.

Turning to `CC1(C)CC[C@H]([C@@H](O)c2ccccc2Cl)N1` [Compound 151], the Emax at 10 µM in the test on L6-myotubes [1] and with L6-myotubes [2] was less than 25% in each case.

In the case of `CC1(C)CC[C@H]([C@H](O)c2ccccc2Cl)N1` [Compound 152, (R)-[(R)-5,5-dimethyl-2-pyrrolidinyl](o-chlorophenyl)methanol], the Emax at 10 µM in the test on L6-myotubes [1] was more than 75%; in the test with L6-myotubes [2], less than 25%.

As to `CC1(C)CC[C@H]([C@@H](O)c2cccc(Cl)c2)N1` [Compound 153, (S)-[(R)-5,5-dimethyl-2-pyrrolidinyl](m-chlorophenyl)methanol], the Emax at 10 µM is 25 to 50% in the test on L6-myotubes [1] and less than 25% with L6-myotubes [2].

Consider `CC1(C)CC[C@H]([C@H](O)c2cccc(Cl)c2)N1` [Compound 154, (R)-[(R)-5,5-dimethyl-2-pyrrolidinyl](m-chlorophenyl)methanol], for which the Emax at 10 µM in the test with L6-myotubes [1] was more than 75%; in the test with L6-myotubes [2], less than 25%.

`CCC[C@H]1CCC[C@H]([C@@H](O)c2cccc(O)c2)N1` [Compound 155]: the Emax at 10 µM in the test with L6-myotubes [1] and with L6-myotubes [2] was less than 25% throughout.

As to `CC1(C)CC[C@H]([C@@H](O)c2cncc(F)c2)N1` [Compound 156], the Emax at 10 µM in the test with L6-myotubes [1] and in the test on L6-myotubes [2] was less than 25% in each case.

With `CC1(C)CC[C@H]([C@H](O)c2cncc(F)c2)N1` [Compound 157, (R)-[(R)-5,5-dimethyl-2-pyrrolidinyl](5-fluoro-3-pyridyl)methanol], the Emax at 10 µM was more than 75% in the test on L6-myotubes [1] and less than 25% with L6-myotubes [2].

On to `CCCC1(CCC)CC[C@H]([C@@H](O)c2cccc(F)c2)N1` [Compound 158, (S)-[(R)-5,5-dipropyl-2-pyrrolidinyl](m-fluorophenyl)methanol], for which the Emax at 10 µM with L6-myotubes [1] and in the test on L6-myotubes [2] was less than 25% each time.

For `CCCC1(CCC)CC[C@H]([C@H](O)c2cccc(F)c2)N1` [Compound 159], the Emax at 10 µM in the test on L6-myotubes [1] was 50 to 75%; with L6-myotubes [2] it was less than 25%.

Regarding `CCC[C@@H]1CC[C@H]([C@H](O)c2cncc(F)c2)N1` [Compound 160, (R)-[(2R,5R)-5-propyl-2-pyrrolidinyl](5-fluoro-3-pyridyl)methanol], the “Biological example 2 (GU)” value in the test with L6-myotubes [1] is reported as “+++ (If a compound at 10 μM shows activity of more than 75% of that of isoproterenol at 10 μM, the activity is denoted with +++)”. In the test with L6-myotubes [2], this molecule displayed an Emax at 10 µM of less than 25%.

As to `CCC[C@@H]1CC[C@H]([C@H](O)c2cncc(F)c2)N1` [Compound 161], in the test on L6-myotubes [1], the “Biological example 2 (GU)” value was “+ (if it is between 50 and 25% it is denoted with +)”. In addition, the “Biological example 3 (CAMP)” value with L6-myotubes [2] is listed as “− (if it less than 25% it is denoted with −)”.

Regarding `CC1(C)CCC[C@H]([C@H](O)c2ccccc2Cl)N1` [Compound 162, (R)-[(R)-6,6-dimethyl-2-piperidyl](o-chlorophenyl)methanol], the Emax at 10 µM in the test on L6-myotubes [1] was 25 to 50%; with L6-myotubes [2], less than 25%.

Take `CC1(C)CCC[C@H]([C@@H](O)c2ccccc2Cl)N1` [Compound 163, (S)-[(R)-6,6-dimethyl-2-piperidyl](o-chlorophenyl)methanol]: the Emax at 10 µM in the test with L6-myotubes [1] was more than 75%; with L6-myotubes [2], less than 25%.

As for `CC1(C)CCC[C@H]([C@@H](O)c2cccc(Cl)c2)N1` [Compound 164], the Emax at 10 µM in the test with L6-myotubes [1] is 50 to 75%; in the test on L6-myotubes [2], less than 25%.

Turning to `CC1(C)CCC[C@H]([C@H](O)c2cccc(Cl)c2)N1` [Compound 165], the Emax at 10 µM in the test with L6-myotubes [1] was 25 to 50%; with L6-myotubes [2], less than 25%.

On to `CC1(C)CC[C@H]([C@@H](O)c2cncc(O)c2)N1` [Compound 166, 5-{(S)-[(R)-5,5-dimethyl-2-pyrrolidinyl] hydroxymethyl}-3-pyridinol], for which the Emax at 10 µM was 25 to 50% with L6-myotubes [1] and less than 25% in the test with L6-myotubes [2].

As for `CC1(C)CC[C@H]([C@H](O)c2cncc(O)c2)N1` [Compound 167, 5-{(R)-[(R)-5,5-dimethyl-2-pyrrolidinyl] hydroxymethyl}-3-pyridinol], the Emax at 10 µM is 50 to 75% with L6-myotubes [1] and less than 25% with L6-myotubes [2].

As to `O[C@H](c1cccc(F)c1)[C@H]1CCC2(CCCC2)N1` [Compound 168], the Emax at 10 µM lay within 50 to 75% with L6-myotubes [1] and 25 to 50% with L6-myotubes [2].

As to `O[C@@H](c1cccc(F)c1)[C@H]1CCC2(CCCC2)N1` [Compound 169], the Emax at 10 µM in the test with L6-myotubes [1] and in the test with L6-myotubes [2] was less than 25% throughout.

For `O[C@H](c1cccc(F)c1)[C@H]1CCC2(CC2)N1` [Compound 170, (R)-{(R)-4-aza-5-spiro[2.4]heptyl}(m-fluorophenyl)methanol], the values for the Emax at 10 µM with L6-myotubes [1] and in the test on L6-myotubes [2] were 50 to 75% and less than 25%, respectively.

`O[C@@H](c1cccc(F)c1)[C@H]1CCC2(CC2)N1` [Compound 171]: the Emax at 10 µM in the test with L6-myotubes [1] is 25 to 50%; with L6-myotubes [2] it was less than 25%.

Regarding `CC1(C)CC[C@H]([C@@H](O)c2ccc(F)cc2)N1` [Compound 172], the Emax at 10 µM in the test on L6-myotubes [1] and in the test with L6-myotubes [2] was less than 25% each time.

Consider `CC1(C)CC[C@H]([C@H](O)c2ccc(F)cc2)N1` [Compound 173], for which the Emax at 10 µM in the test with L6-myotubes [1] was 50 to 75%; in the test with L6-myotubes [2], less than 25%.

With `CC1(C)CC[C@H]([C@@H](O)c2ccccc2F)N1` [Compound 174, (S)-[(R)-5,5-dimethyl-2-pyrrolidinyl](o-fluorophenyl)methanol], the Emax at 10 µM with L6-myotubes [1] and with L6-myotubes [2] was less than 25% in each case.

`CC1(C)CCC[C@H]([C@@H](O)c2ccccc2F)N1` [Compound 176, (S)-[(R)-6,6-dimethyl-2-piperidyl](o-fluorophenyl)methanol]: the Emax at 10 µM with L6-myotubes [1] was more than 75%; in the test with L6-myotubes [2], 25 to 50%.

`CC1(C)CCC[C@H]([C@H](O)c2ccccc2F)N1` [Compound 177, (R)-[(R)-6,6-dimethyl-2-piperidyl](o-fluorophenyl)methanol]: the results for the Emax at 10 µM in the test on L6-myotubes [1] and in the test with L6-myotubes [2] were 50 to 75% and less than 25%, respectively.

For `CC12CCC([C@@H](O)c3cccc(F)c3)(CC1)N2` [Compound 178, (S)-(m-fluorophenyl)(4-methyl-7-azabicyclo[[2.2.1]]hept-1-yl)methanol], the Emax at 10 µM in the test on L6-myotubes [1] was 25 to 50%; with L6-myotubes [2] it was less than 25%.
